Measured values from patent US6403082B1, “Bacteriocins, transport and vector system and method of use thereof” (priority 1996, dated 2002).
Several values for one entry are separate records, joined by “and”; a condition that tells them apart may be missing. Equal entries are not always repeated. Marks after values point to notes of the source that are not given here. Ends that are not written are not given here.

Tests used:
Assay in all cases: Spot test of partially purified bacteriocins on strains grown on agar
[1] = test system: Bacillus vegetative cells; assay type: cell-based
Bacillus spores = assay type: cell-based
[2] = test system: Clostridia vegetative cells; assay type: cell-based, Clostridium
Clostridia spores = assay type: cell-based, Clostridium
G negative strains = assay type: cell-based
Staphylococcus = test system: Staphylococcus
Streptococcus = test system: Streptococcus
Listeria = test system: Listeria
Brochothrix = test system: Brochothrix
Carnobacteria = test system: Carnobacteria
Enterococcus = test system: Enterococcus
Lactobacillus = test system: Lactobacillus
Lactococcus = test system: Lactococcus
Leuconostoc = test system: Leuconostoc
Pediococcus = test system: Pediococcus

Substance	Number of strains inhibited/Number of strains tested ([1]; 1AU (10 μl/spot of 100 AU/ml))	Number of strains inhibited/Number of strains tested ([1]; 8AU (10 μl/spot of 800 AU/ml))	Number of strains inhibited/Number of strains tested (Bacillus spores; 1AU (10 μl/spot of 100 AU/ml))	Number of strains inhibited/Number of strains tested (Bacillus spores; 8AU (10 μl/spot of 800 AU/ml))	Number of strains inhibited/Number of strains tested ([2]; 1AU (10 μl/spot of 100 AU/ml))	Number of strains inhibited/Number of strains tested ([2]; 8AU (10 μl/spot of 800 AU/ml))	Number of strains inhibited/Number of strains tested (Clostridia spores; 1AU (10 μl/spot of 100 AU/ml))	Number of strains inhibited/Number of strains tested (Clostridia spores; 8AU (10 μl/spot of 800 AU/ml))	Number of strains inhibited/Number of strains tested (G negative strains; 1AU (10 μl/spot of 100 AU/ml))	Number of strains inhibited/Number of strains tested (G negative strains; 8AU (10 μl/spot of 800 AU/ml))	Number of strains inhibited/Number of strains tested (Staphylococcus; 1AU (10 μl/spot of 100 AU/ml))	Number of strains inhibited/Number of strains tested (Staphylococcus; 8AU (10 μl/spot of 800 AU/ml))	Number of strains inhibited/Number of strains tested (Streptococcus; 1AU (10 μl/spot of 100 AU/ml))	Number of strains inhibited/Number of strains tested (Streptococcus; 8AU (10 μl/spot of 800 AU/ml))	Number of strains inhibited/Number of strains tested (Listeria; 1AU (10 μl/spot of 100 AU/ml))	Number of strains inhibited/Number of strains tested (Listeria; 8AU (10 μl/spot of 800 AU/ml))	Number of strains inhibited/Number of strains tested (Brochothrix; 1AU (10 μl/spot of 100 AU/ml))	Number of strains inhibited/Number of strains tested (Brochothrix; 8AU (10 μl/spot of 800 AU/ml))	Number of strains inhibited/Number of strains tested (Carnobacteria; 1AU (10 μl/spot of 100 AU/ml))	Number of strains inhibited/Number of strains tested (Carnobacteria; 8AU (10 μl/spot of 800 AU/ml))	also measured
Nisin	5/5	5/5	5/5	5/5	7/8	8/8	5/7	7/7	0/29	0/29	3/7	7/7	1/3	2/3	42/42	42/42	14/14	14/14	19/19	19/19	Number of strains inhibited/Number of strains tested (Enterococcus; 1AU (10 μl/spot of 100 AU/ml)): 12/14; Number of strains inhibited/Number of strains tested (Enterococcus; 8AU (10 μl/spot of 800 AU/ml)): 14/14; Number of strains inhibited/Number of strains tested (Lactobacillus; 1AU (10 μl/spot of 100 AU/ml)): 16/17; Number of strains inhibited/Number of strains tested (Lactobacillus; 8AU (10 μl/spot of 800 AU/ml)): 17/17; Number of strains inhibited/Number of strains tested (Lactococcus; 1AU (10 μl/spot of 100 AU/ml)): 4/8; Number of strains inhibited/Number of strains tested (Lactococcus; 8AU (10 μl/spot of 800 AU/ml)): 6/8^t and 6/8; Number of strains inhibited/Number of strains tested (Leuconostoc; 1AU (10 μl/spot of 100 AU/ml)): 9/9; Number of strains inhibited/Number of strains tested (Leuconostoc; 8AU (10 μl/spot of 800 AU/ml)): 9/9; Number of strains inhibited/Number of strains tested (Pediococcus; 1AU (10 μl/spot of 100 AU/ml)): 3/3; Number of strains inhibited/Number of strains tested (Pediococcus; 8AU (10 μl/spot of 800 AU/ml)): 3/3
Pedi PA-1: pediocin PA-1, a bacteriocin from Pediococcus acidilactici PAC1.0 (KYYGNGVTCGKHSCSVDWGKATTCIINNGAMAWATGGHQGNHKC; ends and bridges not checked; cysteine pairing not given here; UniProt P29430 19-62, looked up)	2/5	2/5	0/5	0/5	0/8	0/8	0/7	0/7	0/29	0/29	0/7	1/7	0/3	0/3	39/42	40/42	0/14	0/14	7/19	7/19	Number of strains inhibited/Number of strains tested (Enterococcus; 1AU (10 μl/spot of 100 AU/ml)): 7/14; Number of strains inhibited/Number of strains tested (Enterococcus; 8AU (10 μl/spot of 800 AU/ml)): 11/14; Number of strains inhibited/Number of strains tested (Lactobacillus; 1AU (10 μl/spot of 100 AU/ml)): 1/17; Number of strains inhibited/Number of strains tested (Lactobacillus; 8AU (10 μl/spot of 800 AU/ml)): 2/17; Number of strains inhibited/Number of strains tested (Lactococcus; 1AU (10 μl/spot of 100 AU/ml)): 0/8; Number of strains inhibited/Number of strains tested (Lactococcus; 8AU (10 μl/spot of 800 AU/ml)): 0/8; Number of strains inhibited/Number of strains tested (Leuconostoc; 1AU (10 μl/spot of 100 AU/ml)): 4/9; Number of strains inhibited/Number of strains tested (Leuconostoc; 8AU (10 μl/spot of 800 AU/ml)): 5/9; Number of strains inhibited/Number of strains tested (Pediococcus; 1AU (10 μl/spot of 100 AU/ml)): 0/3; Number of strains inhibited/Number of strains tested (Pediococcus; 8AU (10 μl/spot of 800 AU/ml)): 2/3
cbn A	2/5	2/5	0/5	0/5	0/8	0/8	0/7	0/7	0/29	0/29	0/7	1/7	0/3	0/3	4/42	21/42	0/14	0/14	0/14	0/14	Number of strains inhibited/Number of strains tested (Enterococcus; 1AU (10 μl/spot of 100 AU/ml)): 2/14; Number of strains inhibited/Number of strains tested (Enterococcus; 8AU (10 μl/spot of 800 AU/ml)): 2/14; Number of strains inhibited/Number of strains tested (Lactobacillus; 1AU (10 μl/spot of 100 AU/ml)): 0/17; Number of strains inhibited/Number of strains tested (Lactobacillus; 8AU (10 μl/spot of 800 AU/ml)): 1/17; Number of strains inhibited/Number of strains tested (Lactococcus; 1AU (10 μl/spot of 100 AU/ml)): 0/8; Number of strains inhibited/Number of strains tested (Lactococcus; 8AU (10 μl/spot of 800 AU/ml)): 0/8; Number of strains inhibited/Number of strains tested (Leuconostoc; 1AU (10 μl/spot of 100 AU/ml)): 1/9; Number of strains inhibited/Number of strains tested (Leuconostoc; 8AU (10 μl/spot of 800 AU/ml)): 1/9; Number of strains inhibited/Number of strains tested (Pediococcus; 1AU (10 μl/spot of 100 AU/ml)): 0/3; Number of strains inhibited/Number of strains tested (Pediococcus; 8AU (10 μl/spot of 800 AU/ml)): 0/3
